The values that follow come from US20050026219A1, “Process for label-free measurement of modified substrate” (Boehringer Ingelheim Pharma GmbH & Co. KG, priority 2001, published 2005).

Where two headings read alike, the source gives them in different places. Ends that are not written are not given here.

One assay has as its target EGF-RK (Homo sapiens, UniProt P00533). To be noted: cited from earlier work.
Assay [1] deals with EGF-receptor kinase (EGF-RK) (Homo sapiens, UniProt P00533). Conditions: for Optical layer thickness: PGT 10 μg/50 μl, EGF-RK 1 Unit/50 μl, EGF-RK buffer with Brij 35. As to the method:
The quantity depends mainly on the volumes which are still to be pipetted, the buffer being intended to make the volume of the phosphorylation assay up to the total of 100 μl.
Then 10 μl of 10% (v/v) DMSO solution are added, or if a substance is to be tested for possible enzyme-modulating properties, 10 μl of a test substance, i.e. a possible inhibitor or activator, dissolved in 10% (v/v) of DMSO, are pipetted in.
If an enzymatic reaction is to take place, the enzyme is added at this stage.
Then the substrate is added. The amounts of the substrates Poly-(Glu, Tyr) 4:1, (SEQ ID NO.:2) M-2165 and (SEQ ID NO.:3) Raytide™ EL used are specified in each case.
The reaction of phosphorylation is started here by the addition of 10 μl of the 1 mM ATP solution.
The incubation time is 30 minutes at +30° C., for example.
After the end of the incubation period, 20 μl of antibody solution (1.6.) are pipetted in, for example. The receptor, in this case the antibody, is used in excess. The amount which corresponds to an excess can very easily be determined by anyone skilled in the art by means of experiments on binding to a sensor surface to which a substance with a receptor binding site is coupled, with increasing amounts of receptor. In the case of reactions of phosphorylation, increasing amounts of receptor are used with a constant amount of substrate and kinase.
The incubation time with the antibody may be, for example, 30 minutes at ambient temperature.
After the end of the incubation period 50 μl of incubation mixture are taken and pipetted into the prepared measuring cell with the sensor to whose surface is coupled a substance with a receptor binding site.
The layer thickness of the sensor is measured, for example, by Reflectometric Interference Spectroscopy (RIfS) using a SPEKOL 1100 simultaneous spectral photometer made by Messrs Zeiss Jena, modified according to Schmitt et al. 1997.
The receptor (in this case the antibody) is used in excess, so that even if there is a total enzymatic reaction (in this case phosphorylation) of the substrate at least a slight binding signal will still be obtained by the binding of the receptor (antibody) to the sensor surface.
The reaction of phosphorylation is started by the addition of ATP.
At the start of the experiment a control and a complete phosphorylation without the addition of inhibitor are carried out.

A short description of assay [2]: Layer thickness formation (binding) on the phospho-tyrosine-diamino-PEG 2000 sensor surface, RIfS. To be noted: for Optical layer thickness (binding) / Optical layer thickness (non-specific binding): EGF-RK buffer. As to the method: (§1) A conventional aminodextrane (AMD) sensor or a diamino PEG 2000 sensor is used (e.g. Schütz A., 2000; a) Piehler J., et al., 1996; Universität Tübingen, Inst. f. Physikalische and Theoretische Chemie, Germany.)
(§2) 20 μl aliquots of the final solution are immediately added drop by drop to the sensor surface which is about 1 cm^2 in size, and incubated for 8 hours under DMF chamber saturation. Then the sensor is rinsed with DMF and dried in the air.

Assay [3] is described as follows: Layer thickness formation (binding) on the phospho-tyrosine-AMD sensor surface, RIfS. Conditions: for Optical layer thickness (increase): Hepes buffer pH 7.40, Raytide EL or antibody 1.0 μg/50 μl, kinase 1 Unit/50 μl. Here is the method:
as §1, §2
The buffer used is p60c-src-kinase buffer, pH=7.40, with the final concentrations of 50 mM of Hepes and 30 mM of magnesium chloride in the incubation mixture.
The layer thickness formation of p60c-src-kinase (1 Unit/50 μl) in the presence of Brij 35 is investigated. […] Increasing concentrations of Brij 35 (% v/v) are added to the buffer.
Use of alternative substrates, kinase and sensors in a process according to the invention. […] The buffer used is Hepes buffer pH=7.40 with 50 mM of Hepes and 30 mM of magnesium chloride. The buffer contains 0.5% v/v mercaptoethanol, 0.05% v/v Brij 35 and 10 μg/50 μl albumin.
First, the antibody, then the kinase and the substrate are measured on their own in order to be able to evaluate any non-specific binding.

Setting [4] is: Table 8: EGF-RK buffer with Brij 35, substrate 10 μg/50 μl, EGF-RK 0.1 Unit/50 μl, EGF 0.5 μg/50 μl.

EGF-receptor kinase (EGF-RK), sequence (P00533 25-1210): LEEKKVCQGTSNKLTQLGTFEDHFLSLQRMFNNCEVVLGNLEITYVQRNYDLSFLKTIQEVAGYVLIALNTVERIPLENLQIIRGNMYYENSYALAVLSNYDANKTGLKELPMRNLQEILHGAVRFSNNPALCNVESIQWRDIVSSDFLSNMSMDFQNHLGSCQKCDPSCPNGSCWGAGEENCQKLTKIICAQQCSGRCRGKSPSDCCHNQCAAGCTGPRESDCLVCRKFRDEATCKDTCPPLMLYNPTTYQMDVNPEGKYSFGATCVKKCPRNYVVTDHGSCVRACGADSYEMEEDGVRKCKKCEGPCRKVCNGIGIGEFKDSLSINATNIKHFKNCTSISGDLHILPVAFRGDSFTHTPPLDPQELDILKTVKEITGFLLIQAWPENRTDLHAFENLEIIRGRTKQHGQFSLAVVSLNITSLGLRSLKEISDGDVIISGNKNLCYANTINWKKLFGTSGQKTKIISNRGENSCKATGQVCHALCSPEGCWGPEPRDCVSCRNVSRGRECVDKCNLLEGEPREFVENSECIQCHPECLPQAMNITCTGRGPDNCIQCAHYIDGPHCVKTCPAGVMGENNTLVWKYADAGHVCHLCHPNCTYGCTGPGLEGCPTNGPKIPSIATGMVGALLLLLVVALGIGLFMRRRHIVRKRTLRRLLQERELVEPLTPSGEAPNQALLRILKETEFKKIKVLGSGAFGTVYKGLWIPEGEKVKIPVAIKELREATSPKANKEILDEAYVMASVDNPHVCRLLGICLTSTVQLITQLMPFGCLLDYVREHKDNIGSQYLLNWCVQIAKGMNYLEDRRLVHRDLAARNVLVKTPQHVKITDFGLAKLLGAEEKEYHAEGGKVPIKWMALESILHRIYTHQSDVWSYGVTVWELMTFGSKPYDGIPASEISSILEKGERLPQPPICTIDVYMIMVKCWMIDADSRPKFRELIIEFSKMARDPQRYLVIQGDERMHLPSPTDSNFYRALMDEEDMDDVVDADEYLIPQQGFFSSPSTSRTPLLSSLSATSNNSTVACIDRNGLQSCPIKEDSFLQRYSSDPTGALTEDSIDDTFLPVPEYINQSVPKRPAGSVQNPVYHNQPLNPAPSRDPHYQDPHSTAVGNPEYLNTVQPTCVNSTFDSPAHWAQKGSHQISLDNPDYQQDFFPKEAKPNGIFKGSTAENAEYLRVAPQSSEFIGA
EGF-RK, sequence (P00533 25-1210): as above

Turning to `O=CN/C=C/c1cc(O)ccc1O` [Erbstatin], the “Inhibitor strength described in the literature” value on EGF-RK is “weak inhibitor”.
`COC(=O)/C=C/c1cc(O)ccc1O` [erbstatin analogue, Erbstatin Analogue]: the Optical layer thickness in assay [1] (10^-3M inhibitor) stood at 1.170 nm; in assay [1] (10^-4M inhibitor), 0.728 nm; in assay [1] (10^-5M inhibitor) it was 0.702 nm; in assay [1] (10^-6M inhibitor) it was 0.442 nm; in assay [1] (10^-7M inhibitor) it was 0.489 nm; in assay [1] (10^-8M inhibitor) it was 0.526 nm. Besides, in assay [1] (up to 10^-3M), the “Inhibition of phosphorylation” value was “incomplete even at higher concentrations”.
As for “Ac-Ile-Tyr-Gly-Glu-Phe-NH2 (Ac-IYGEF-NH2; also: phosphorylated, site not given here) [M-2165, Oligopeptide kinase substrate, Messrs; Bachem]”, the “Optical layer thickness, component on its own” value is on record as 0.285 nm in assay [2] (Table 13 a: Hepes buffer pH 7.40, 0.5% mercaptoethanol, 0.05% Brij 35, albumin 10 μg/50 μl, M-2165 10 μg/50 μl, p60c-src-kinase 2 Units/50 μl) and 0.230 nm in assay [3] (Table 13: Hepes buffer pH 7.40, 0.5% mercaptoethanol, 0.05% Brij 35, albumin 10 μg/50 μl, M-2165 10 μg/50 μl, p60c-src-kinase 4 Units/50 μl).
For “EGF: Epidermal Growth Factor, activator for phosphorylation with EGF-RK”, the “Optical layer thickness (binding)” value in assay [2] (EGF 0.5 Units + Brij 35 (0.01% v/v)) was determined as 0.320 nm; in assay [2] (EGF 0.5 Units, no Brij 35) it was 0.814 nm; in assay [2] (EGF 1.0 Units + Brij 35 (0.01% v/v)), 0.484 nm; in assay [2] (EGF 1.0 Units, no Brij 35) it was 0.833 nm. Also, in assay [2] (setting [4]), the “Optical layer thickness, component on its own” value is 0.355 nm.
For “Lys-Lys-Lys-Gly-Pro-Trp-Leu-Glu-Glu-Glu-Glu-Glu-Ala-Tyr-Gly-Trp-Leu-Asp-Phe (KKKGPWLEEEEEAYGWLDF; also: phosphorylated modified substrate, site not given here) [Raytide ™ EL, Protein-tyrosine-kinase substrate, Messrs; Calbiochem]”, in assay [2] (Table 12: EGF-RK buffer with Brij 35, Raytide EL 2 μg/50 μl, EGF-RK 0.5 Units/50 μl), the “Optical layer thickness, component on its own” value came out at 0.127 nm. In addition, the “Optical layer thickness (increase)” value in assay [3] (with 0.001% Brij 35 (v/v)) is reported as 0.067 nm; in assay [3] (with 0.002% Brij 35 (v/v)) it was 0.083 nm; in assay [3] (with 0.01% Brij 35 (v/v)), 0.000 nm; in assay [3] (with 0.02% Brij 35 (v/v)) it was 0.000 nm; in assay [3] (with 0.1% Brij 35 (v/v)) it was 0.000 nm; in assay [3] (with 0.2% Brij 35 (v/v)), 0.000 nm. Besides, the “Optical layer thickness (increase)” value in assay [3] (without Brij 35) was determined as 0.169 nm.
As for Poly-(Glu, Tyr) 4:1 [PGT], the “Optical layer thickness (non-specific binding)” value was 0.064 nm in assay [2] (0.5 μg PGT); 0.026 nm in assay [2] (1.0 μg PGT); 0.000 nm in assay [2] (2.0 μg PGT); 0.052 nm in assay [2] (5.0 μg PGT); 0.065 nm in assay [2] (10 μg PGT); 0.054 nm in assay [2] (20 μg PGT). The “Optical layer thickness (non-specific binding)” value in assay [2] (50 μg PGT) came to 0.113 nm; in assay [2] (100 μg PGT), 0.084 nm. Besides, the “Optical layer thickness, component on its own” value in assay [2] (setting [4]) was 0 nm; in assay [2] (Table 9: EGF-RK buffer with Brij 35, substrate 10 μg/50 μl, EGF-RK 2 Units/50 μl), 0 nm.
